Test results reported in patent US8962263B2, “Methods and compositions for detecting the activation state of multiple proteins in single cells” (The Board of Trustees of the Leland Stanford Junior …, priority 2001, dated 2015).

Assays:
p44/42 MAPK = assay: intracellular phospho-p44/42 MAPK by flow cytometry in ICAM-2 treated Jurkat cells; type: cell-based, human; conditions: chemical agents 10 μM, EDTA 1 mM; mAbs titrated prior to ICAM-2
Excerpt: A) Mean fluorescent intensity values (MFI) of ICAM-2-FITC (adhesion) and mAb24-Alexa633, (LFA-1, activation) in treated Jurkat cells (as above). Control unstimulated and/or compound pretreated values were subtracted. B) Top panel: Intracellular phospho-p44/42, MAPK detection as a function of ICAM-2, dose in Jurkat cells by flow cytometry (see Material and Methods). Mean fluorescent intensity values (MFI) were plotted±standard deviation (SD). Bottom panel: ICAM-2, treated Jurkat cells were stained for intracellular phospho-p44/42, MAPK as described above. mAbs to β2, and αL, integrins (10, μg/ml, 10, minutes) were titrated prior to ICAM-2, treatment as indicated and plotted for MFI±SD. C) ICAM-2, induced p44/42, MAPK activity is blocked by β2, and αL, integrin antibodies as determined by a p44/42 MAPK kinase assay. Conditions for induction and inhibition are as described above. Recombinant active p44/42, MAPK served as an internal positive control (denoted by “+”). D) Inhibition and activation profile for intracellular phospho-p44/42, by flow cytometry in the presences of chemical agents (10, μM), EDTA (1, mM), or PMA, ionomycin and ICAM-2, stimulus (as indicated above). MFI values±SD are plotted.
(§1) Intracellular and extracellular staining was performed as described (Perez and Nolan, 2002). Intracellular probes for active kinases were made by conjugating phospho-specific antibodies to the ALEXA FLUOR® dye series as described and used in phospho-protein optimized conditions (Perez and Nolan, 2002). Kinetic analyses was performed by direct application of fixation buffer in time synchronized 96-wells maintained at 37° C. Intracellular actin and microtubule staining was performed using phalloidin-Alexa633 and taxol-Alexa546 dyes (Molecular Probes). Adhesion and clustering assays were performed using ICAM-2-FITC as described in text. LFA-1 activation was assessed by either mAb24-Alexa633 or mAb24-Alexa546 conjugate, surface stained at 37° C. Flow cytometry data are representative of 3 independent experiments of 10^6 cells/sample. 10-50,000 events were collected and manually calibrated on a FACSCalibur™ machine. Data plotted in bar graph format is expressed as geometric mean fluorescence intensity (MFI) and normalized for isotype controls. Log ratios are defined as the MFI of stimulus to the MFI of unstimulated cells. Data was analyzed using Flowjo™ software (Treestar).

NIH3T3 = assay: staurosporine induced apoptosis in ICAM-2 transduced NIH3T3 (annexin-V binding, BrdU TUNEL); type: cell-based, murine; conditions: for effect on ICAM-2 anti-apoptotic effect, other kinase inhibitors: cell type not stated, data not shown
Method: A) Pharmacological inhibitors of PI3K abrogate ICAM-2's anti-apoptotic. ICAM-2, or vector transduced BaF3, cells were treated with staurosporine (1, μM) with (unfilled) or without (filled) the addition of 100, nM wortmannin for 24, hours (left bar graph). Apoptosis was determined by nuclear staining and fluorescence microscopy (left bar graph) and by annexin-V binding assay (right bar graph). The proportion of apoptotic cells in each culture without staurosporine was 8%+/−2. The percentage of apoptotic cells is expressed as the mean (bar)+SD of triplicate cultures. ICAM-2, 1CAM2-AC, or vector transduced NIH3T3, were treated with staurosporine ([…]) in the presence or absence of 10, μM LY294002, for 24, hours (right bar graph). DMSO vehicle served as negative control. The percentage of apoptotic cells is expressed as the mean (bar)+/−SD of triplicate cultures. B) Confocal images of PI3K and AKT localization in ICAM-2, (top) or vector control cells (bottom). C) Confocal images of ezrin and the p85, subunit of PI3K (green) localization in ICAM-2, (top) or vector control cells (bottom).
A) The anti-apoptotic effect of ICAM-2, is both wortmannin and LY294002, sensitive. ICAM-2, or vector transduced BaF3, cells were treated with staurosporine (1, μM) with (unfilled) or without (filled) the addition of 100, nM wortmannin for 24 hours. Apoptosis was determined by nuclear staining and fluorescence microscopy (left bar graph) and by annexin-V binding assay (right bar graph). The proportion of apoptotic cells in each culture without staurosporine was 8%±2. The percentage of apoptotic cells is expressed as the mean (bar)±SD of triplicate cultures. ICAM-2, ICAM2-ΔC, or vector transduced NIH3T3, were treated with staurosporine (1, μM) in the presence or absence of 10, μM LY294002, for 24, hours. DMSO vehicle served as negative control. The percentage of apoptotic cells is expressed as the mean (bar)±SD of triplicate cultures. B) ICAM-2, expressing NIH3T3, cells are sensitive to apoptosis in the presence of PI3K inhibitor LY294002. BrdU TUNEL assay was performed in staurosporine (1, μM) or LY294002, (10, μM) treated ICAM-2, ICAM2-ΔC, and control vector transduced NIH3T3, cells. The percentage of apoptotic cells is expressed as the mean (bar)±SD of triplicate cultures.
Apoptosis was determined either by counting pyknotic nuclei, annexin-V binding by flow cytometry, or TUNEL BrdU staining by flow cytometry as indicated. Apoptosis was induced either by staurosporine (1 μm), treatment with anti-mouse Fas (5 μq/ml Santa Cruz Biotechnology (SCB), […] Fas (5 μg/ml Jo2 Biomed) or anti-human Fas (10 ng/ml CH11 Kamiya Biomedical) as indicated in appropriate experiment, IL-3 withdrawal-(24 hrs) or as indicated. For pyknolic nuclei count, NIH3T3 cells were grown on glass coverslips and assayed for apoptosis. Suspension cells were analyzed by nuclear staining with 25 μM acridine orange/25 μm ethidium bromide or 5 μg/ml Hoechst 33342 (Molecular Probes, Eugene, Oreg.). Apoptosis was identified by the presence of characteristic pyknotic nuclei as described (Jacobson and Raff, 1995). At least 5 individual fields were photographed and counted using a Zeiss axioscope fluorescence microscope. For the survival assay 10^6 NIH3T3 cells were plated in 10 cm dishes and incubated overnight at 37° C. The cells were treated with 1 μM staurosporine for 24 hours. The cells were washed and cultured for 24 hours in complete medium. The cells were trypsinized and viable cells counted following trypan blue staining. Untreated cells were counted at the time of treatment. % survival represents (number of viable cells post-treatment)/(number of viable cells pretreatment). FACS based annexin-V-FITC/PI staining was done as described (PharMingen). TUNEL assay was performed as described by manufacturer of Apoptosis BrdU kit (Promega). […]

LFA-1 [1] = assay: LFA-1 activation by mAb24-Alexa633 staining, flow cytometry; type: cell-based, human; conditions: Jurkat cells; agents 10 μM 30 min, PMA 1 μg/ml, prior to ICAM-2 10 μg/ml 30 min
Method: A) Confocal microscopy of actin and microtubule architecture upon ICAM-2, stimulus (10, μg/ml, 30, min) in Jurkat cells. Actin was stained by phalloidin-alexa633, and tubulin by taxol-alexa546. Inserts display enlarged cell image of representative treatment B) Flow cytometric staining for actin and microtubules as described above. C) Left: Fluorescence topography analysis of ICAM-2-FITC (1 μg/ml, time as indicated) surface distribution. Intensity color gradient depicts high and low fluorescent intensity values. Right: Confocal microscopy of ICAM-2-FITC surface binding (10 μg/ml, 30, min) and anti-β2-alexa568, (clone CTB104). D) Staining for ICAM-2-FITC surface binding (fluorescence intensity) and surface distribution (fluorescence pulse) in cytochalisin D treated Jurkat cells at 37° C. and 4° C. by flow cytometry. E) Values for ICAM-2-FITC fluorescence intensity per time-of-flight per cell as described in text. F) Flow cytometric staining for LFA-1 activation by mAb24-alexa633. Stimuli as indicated (10, μM, 30, min), PMA (1, μg/ml) prior to ICAM-2, stimulation (10, μg/ml, 30, min). Staining was performed at 37° C. G) Mean fluorescence intensity (MFI) values of mAb24-633, and ICAM-2, cluster values, computed as described above, as a function of time.
as §1

Pyk2 = assay: sICAM-2 induced Pyk2 phosphorylation (phospho-tyrosine based ELISA, chemical genetic approach); type: cell-based; conditions: phospho-tyrosine based ELISA
Excerpt: E) depicts that LFA-1, induced phosphorylation of Pyk2, and Syk is dependent on PKC. We screened for the inhibition of sICAM-2, induced Pyk2, and Syk phosphorylation by chemical inhibitors to tyrosine kinases using a phospho-tyrosine based ELISA. Pyk2, phosphorylation was abrogated in the presence of PKC inhibitors bisindolymaleimide II (BIM II) and staurosporine (STP), in addition to tyrphostin A9, a specific Pyk2, inhibitor. a Pyk2, phosphorylation was also affected by inhibitors of phospholipase Cg (neomycin), inhibitors of Syk (piceatannol), and PKC inhibitor BIM I. Syk phosphorylation was completely abolished by inhibition of Pyk2, PLCg1, and strongly affected by PKC inhibitors. Thus, both Pyk2, and Syk phosphorylations were dependent on PKC activity, while Syk phosphorylation was additionally dependent on PLCg1, and Pyk2, activity. It was not possible to assess specific PKC isozymes by this method.
A chemical genetic approach was undertaken to determine the hierarchy of PKC, Pyk2, PLCg1, and Syk activities in response to sICAM-2, stimulus by verifying phosphorylation status of each kinase in the presence of respective chemical inhibitors. Inhibition of PKC with BIM II abrogated phosphorylation of Pyk2, PLCg1, and Syk. Inhibition of PLCg1, by neomycin abrogated phosphorylation of Syk, with no inhibition observed for Pyk2. […] Thus, the upstream signaling events from LFA-1, to Raf-1, appear to involve PKC/Pyk2/PLCg1/Syk. […] We are currently pursuing these complexes in a separate study.

LFA-1 [2] = target: LFA-1 (Homo sapiens, UniProt P20701); conditions: cited from earlier work
Chain of LFA-1 (Homo sapiens, UniProt P20701) (P20701 26-1170): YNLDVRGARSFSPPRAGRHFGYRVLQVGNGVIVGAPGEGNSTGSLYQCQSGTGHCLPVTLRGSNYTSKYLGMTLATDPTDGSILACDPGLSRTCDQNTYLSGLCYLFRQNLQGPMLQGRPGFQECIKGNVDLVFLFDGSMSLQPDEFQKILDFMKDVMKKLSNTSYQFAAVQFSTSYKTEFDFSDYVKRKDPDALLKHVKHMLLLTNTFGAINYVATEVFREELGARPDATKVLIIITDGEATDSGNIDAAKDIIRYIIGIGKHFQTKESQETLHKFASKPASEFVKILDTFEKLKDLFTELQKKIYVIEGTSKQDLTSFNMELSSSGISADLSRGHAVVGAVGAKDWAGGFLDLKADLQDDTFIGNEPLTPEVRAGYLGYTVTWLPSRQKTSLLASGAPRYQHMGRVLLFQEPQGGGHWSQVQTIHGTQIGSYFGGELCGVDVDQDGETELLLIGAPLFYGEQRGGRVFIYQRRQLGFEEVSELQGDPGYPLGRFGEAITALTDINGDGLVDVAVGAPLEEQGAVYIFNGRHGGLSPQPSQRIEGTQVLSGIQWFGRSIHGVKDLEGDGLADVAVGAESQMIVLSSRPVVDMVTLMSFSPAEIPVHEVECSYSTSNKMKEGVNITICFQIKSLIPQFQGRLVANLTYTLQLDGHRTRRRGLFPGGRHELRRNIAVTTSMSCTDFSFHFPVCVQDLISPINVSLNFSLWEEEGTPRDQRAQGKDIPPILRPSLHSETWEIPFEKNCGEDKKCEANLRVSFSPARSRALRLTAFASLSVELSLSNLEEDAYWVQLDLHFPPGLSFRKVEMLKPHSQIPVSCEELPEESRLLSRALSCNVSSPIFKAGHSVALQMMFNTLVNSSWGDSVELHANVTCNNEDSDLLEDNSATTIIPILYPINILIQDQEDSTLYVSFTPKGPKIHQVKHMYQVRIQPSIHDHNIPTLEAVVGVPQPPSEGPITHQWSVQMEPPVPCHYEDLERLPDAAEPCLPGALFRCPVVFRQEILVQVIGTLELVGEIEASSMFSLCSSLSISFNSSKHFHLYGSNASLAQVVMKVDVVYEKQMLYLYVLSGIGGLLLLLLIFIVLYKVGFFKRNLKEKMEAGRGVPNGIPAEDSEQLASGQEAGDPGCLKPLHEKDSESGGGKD
Chain of LFA-1 (Homo sapiens, UniProt P20701) (P05107 23-769 partner): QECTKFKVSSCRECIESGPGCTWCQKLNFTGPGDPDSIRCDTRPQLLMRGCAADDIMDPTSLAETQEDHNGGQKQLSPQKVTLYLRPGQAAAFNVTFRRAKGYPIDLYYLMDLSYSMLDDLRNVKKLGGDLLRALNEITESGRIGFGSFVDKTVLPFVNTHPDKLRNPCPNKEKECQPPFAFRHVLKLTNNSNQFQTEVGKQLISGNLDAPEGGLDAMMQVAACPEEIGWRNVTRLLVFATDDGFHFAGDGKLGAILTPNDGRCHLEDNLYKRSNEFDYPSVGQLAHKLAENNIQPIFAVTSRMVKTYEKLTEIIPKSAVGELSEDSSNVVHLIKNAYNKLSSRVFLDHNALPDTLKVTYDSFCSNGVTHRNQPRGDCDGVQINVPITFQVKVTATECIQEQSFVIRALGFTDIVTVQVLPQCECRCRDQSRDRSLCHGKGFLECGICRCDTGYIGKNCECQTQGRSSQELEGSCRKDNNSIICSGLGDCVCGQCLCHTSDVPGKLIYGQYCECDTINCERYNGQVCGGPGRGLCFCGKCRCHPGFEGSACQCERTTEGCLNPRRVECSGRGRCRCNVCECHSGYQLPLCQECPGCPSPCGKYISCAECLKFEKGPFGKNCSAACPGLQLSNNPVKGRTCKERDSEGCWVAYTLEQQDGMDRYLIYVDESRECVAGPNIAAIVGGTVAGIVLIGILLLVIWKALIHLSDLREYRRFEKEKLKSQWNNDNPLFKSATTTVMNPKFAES

Row | Compound | effect on ICAM-2 induced p44/42 MAPK phosphorylation (p44/42 MAPK) | effect on ICAM-2 anti-apoptotic effect, other kinase inhibitors (NIH3T3) | LFA-1 activation (mAb24 binding) (LFA-1 [1]) | also measured
1 | O=C(O)CN(CCN(CC(=O)O)CC(=O)O)CC(=O)O [EDTA] | diminished | – | – | –
2 | Cc1cc(O)c2c(c1)C(=O)c1cc(O)cc(O)c1C2=O [Emodin] | no effect | – | – | –
3 | O=S(=O)(NCCNC/C=C/c1ccc(Br)cc1)c1cccc2cnccc12 [H-89] | – | not abrogated | – | –
4 | CCCCCCCCCCCCCC(=O)O[C@@H]1[C@@H](C)[C@@]2(O)[C@@H](C=C(CO)C[C@]3(O)C(=O)C(C)=C[C@@H]23)[C@@H]2C(C)(C)[C@]12OC(C)=O [PMA, phorbol myristelated acetate] | – | – | induction | –
5 | C[S+]([O-])c1ccc(-c2nc(-c3ccncc3)c(-c3ccc(F)cc3)[nH]2)cc1 (stereo not drawn) [SB 203580] | – | not abrogated | – | –
6 | N#CC(=C(/N)Sc1ccccc1N)/C(C#N)=C(\N)Sc1ccccc1N [U0126] | – | not abrogated | – | –
7 | COC(=O)Nc1nc2cc(C(=O)c3cccs3)ccc2[nH]1 [nocodazole] | diminished | – | full activation of LFA-1 | –
8 | CN[C@@H]1C[C@H]2O[C@@](C)([C@@H]1OC)n1c3ccccc3c3c4c(c5c6ccccc6n2c5c31)C(=O)NC4 [staurosporine] | – | – | – | ICAM-2 induced survival signal (NIH3T3; PKC isozyme inhibitors, system not specified): did not abrogate; sICAM-2 induced Pyk2 phosphorylation (Pyk2): abrogated
9 | CC(=O)O[C@H]1C(=O)[C@@]2(C)[C@H]([C@H](OC(=O)c3ccccc3)[C@]3(O)C[C@H](OC(=O)[C@H](O)[C@@H](NC(=O)c4ccccc4)c4ccccc4)C(C)=C1C3(C)C)[C@]1(OC(C)=O)CO[C@@H]1C[C@@H]2O [taxol] | diminished | – | full activation of LFA-1 | –
10 | P1: synthesized peptide of ICAM-2's first Ig domain (P1, amino acids 21-42) (GSDEKVFEVHVRPKKLAVEPKG; UniProt P13598 21-42, looked up, fragment) | – | – | – | concentration inducing LFA-1 mediated adhesion (LFA-1 [2]; bulk cellular adhesion assay): 62 µM; calcium influx (LFA-1 [2]): did not induce calcium influx; induction of the active conformation of LFA-1 (LFA-1 [2]): did not induce the active conformation of LFA-1
